The text below walks through data of patent US7795261B2, “Substituted 1-piperidin-4-yl-4-pyrrolidin-3-yl-piperazine derivatives and their use as neurokinin antagonists” (Janssen Pharmaceutica NV, priority 2002, dated 2010).

Holding throughout (assay type): cell-based
For assay [1], the target named is NK1 (Homo sapiens, UniProt P25103). As to the kind of experiment: Signal transduction (ST), intracellular Ca++ (FLIPR), NK1 antagonistic activity. The conditions noted are these: read-out: pIC50 NK1 (converted). A digest of the protocol:
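Antagonist IC50 was fitted by non-linear regression of peak intracellular Ca++ signals measured on FLIPR after agonist challenge. Beforehand, Fluo3-loaded confluent cells received antagonists over a concentration range for 20 min at room temperature in Ca++ Krebs buffer, pH 7.4.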

Assay [2] concerns the target T1, NK3 (Homo sapiens, UniProt P29371).
T1 sequence (P29371 1-465): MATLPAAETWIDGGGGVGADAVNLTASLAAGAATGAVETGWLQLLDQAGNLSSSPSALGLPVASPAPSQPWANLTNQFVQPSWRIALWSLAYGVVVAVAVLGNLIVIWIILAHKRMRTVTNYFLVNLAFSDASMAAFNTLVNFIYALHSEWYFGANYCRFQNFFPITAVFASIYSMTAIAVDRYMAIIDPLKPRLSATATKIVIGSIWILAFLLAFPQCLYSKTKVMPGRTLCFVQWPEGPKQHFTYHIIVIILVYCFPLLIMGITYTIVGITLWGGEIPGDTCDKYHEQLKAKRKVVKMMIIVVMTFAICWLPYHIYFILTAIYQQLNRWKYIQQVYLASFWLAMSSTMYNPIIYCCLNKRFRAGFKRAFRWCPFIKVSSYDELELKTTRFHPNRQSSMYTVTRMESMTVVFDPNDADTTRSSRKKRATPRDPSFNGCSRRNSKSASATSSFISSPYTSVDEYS
As to the kind of experiment: Signal transduction (ST), intracellular Ca++ (FLIPR), NK3. Particulars: read-out: pIC50 NK3 (converted).

Assay [3] concerns the target T2, NK2 (Homo sapiens, UniProt P21452).
T2 sequence (P21452 1-398): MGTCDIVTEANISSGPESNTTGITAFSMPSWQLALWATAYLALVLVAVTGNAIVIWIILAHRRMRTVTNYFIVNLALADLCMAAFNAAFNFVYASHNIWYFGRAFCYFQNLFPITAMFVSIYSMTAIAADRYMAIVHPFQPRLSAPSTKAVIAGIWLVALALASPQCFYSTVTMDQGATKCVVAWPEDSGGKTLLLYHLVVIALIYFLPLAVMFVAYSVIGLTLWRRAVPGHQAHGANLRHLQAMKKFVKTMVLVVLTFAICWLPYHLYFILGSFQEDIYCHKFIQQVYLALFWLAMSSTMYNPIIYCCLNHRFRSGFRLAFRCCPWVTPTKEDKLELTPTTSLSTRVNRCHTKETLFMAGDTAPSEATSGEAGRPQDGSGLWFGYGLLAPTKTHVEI
As to the kind of experiment: Signal transduction (ST), intracellular Ca++ (FLIPR), NK2. The conditions noted are these: read-out: pIC50 NK2 (converted). As for the experimental part:
[The procedure below names another target; the source lists this target under the same test.] This test evaluates in vitro functional NK1 antagonistic activity. For the measurements of intracellular Ca^++ concentrations the cells were grown on 96-well (black wall/transparent bottom) plates from Costar for 2 days until they reached confluence. The cells were loaded with 2 μM Fluo3 in DMEM containing 0.1% BSA and 2.5 mM probenecid for 1 h at 37° C. They were washed 3× with a Krebs buffer (140 mM NaCl, 1 mM MgCl2×6H2O, 5 mM KCl, 10 mM glucose, 5 mM HEPES; 1.25 mM CaCl2; pH 7.4) containing 2.5 mM probenecid and 0.1% BSA (Ca^++-buffer). The cells were preincubated with a concentration range of antagonists for 20 min at RT and Ca^++-signals after addition of the agonists were measured in a Fluorescence Image Plate Reader (FLIPR from Molecular Devices, Crawley, England). The peak of the Ca^++-transient was considered as the relevant signal and the mean values of corresponding wells were analysed as described below.
The sigmoidal dose response curves were analysed by computerised curve-fitting, using the GraphPad Program. […] For antagonist responses the IC50-value was calculated using non-linear regression.
The last columns indicates—without being limited therefore—for which the compounds might be most suitable. Of course, since for some neurokinin receptors no data was determined, it is obvious that these compounds might be attributed to another suitable use.

Sequence of NK1 (P25103 whole entry): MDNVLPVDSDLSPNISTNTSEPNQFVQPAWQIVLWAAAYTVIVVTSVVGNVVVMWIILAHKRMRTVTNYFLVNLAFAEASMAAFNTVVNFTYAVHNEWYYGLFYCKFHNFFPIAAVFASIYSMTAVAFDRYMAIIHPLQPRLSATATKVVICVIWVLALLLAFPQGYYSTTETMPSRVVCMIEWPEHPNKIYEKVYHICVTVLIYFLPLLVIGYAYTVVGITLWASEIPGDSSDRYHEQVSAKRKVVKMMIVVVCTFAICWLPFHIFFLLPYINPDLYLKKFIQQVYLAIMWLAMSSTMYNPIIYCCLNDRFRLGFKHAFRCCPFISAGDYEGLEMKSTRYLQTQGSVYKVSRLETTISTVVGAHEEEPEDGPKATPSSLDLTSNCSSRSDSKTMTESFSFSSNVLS

On to `O=C(C(O)c1ccccc1Cl)N1CCC(N2CCN([C@H]3CCN(C(=O)c4cc(C(F)(F)F)cc(C(F)(F)F)c4)[C@H](Cc4ccccc4)C3)CC2)C1` (stereo partly drawn) [Compound 334], for which the IC50 in assay [1] was 31.6 nM; in assay [2] it was 7940 nM; in assay [3], 5010 nM.

Take `O=C(c1cc(C(F)(F)F)cc(C(F)(F)F)c1)N1CCC(N2CCN(C3CCN(S(=O)(=O)c4cc(CCO)cs4)C3)CC2)CC1Cc1ccccc1` (stereo not drawn) [Compound 342]: the IC50 is 5.01 nM in assay [1], 398 nM in assay [2] and 126 nM in assay [3].

Turning to `O=C(c1cccc(O)c1)N1CCC(N2CCN([C@H]3CCN(C(=O)c4cc(C(F)(F)F)cc(C(F)(F)F)c4)[C@H](Cc4ccccc4)C3)CC2)C1` (stereo partly drawn) [Compound 332], the IC50 was 5.01 nM in assay [1], 3160 nM in assay [2] and 1580 nM in assay [3].

As to `COc1cccc(S(=O)(=O)N2CCC(N3CCN([C@H]4CCN(C(=O)c5cc(C(F)(F)F)cc(C(F)(F)F)c5)[C@H](Cc5ccccc5)C4)CC3)C2)c1` (stereo partly drawn) [Compound 347], the IC50 in assay [1] was 20 nM; in assay [2], 2510 nM; in assay [3], 631 nM.

As for `O=C(C(O)c1ccccc1)N1CCC(N2CCN([C@H]3CCN(C(=O)c4cc(C(F)(F)F)cc(C(F)(F)F)c4)[C@H](Cc4ccccc4)C3)CC2)C1` (stereo partly drawn) [Compound 275], the values for the IC50 in assay [1], in assay [2] and in assay [3] were 10 nM, 5010 nM and 2510 nM, respectively.

With `COc1ccc(Cl)cc1S(=O)(=O)N1CCC(N2CCN([C@H]3CCN(C(=O)c4cc(C(F)(F)F)cc(C(F)(F)F)c4)[C@H](Cc4ccccc4)C3)CC2)C1` (stereo partly drawn) [Compound 412], the values for the IC50 in assay [1], in assay [2] and in assay [3] were 79.4 nM, 5010 nM and 2510 nM, respectively.

In the case of `O=C(c1ccc(O)cc1)N1CCC(N2CCN([C@H]3CCN(C(=O)c4cc(C(F)(F)F)cc(C(F)(F)F)c4)[C@H](Cc4ccccc4)C3)CC2)C1` (stereo partly drawn) [Compound 341], the IC50 in assay [1] was 10 nM; in assay [2], 3160 nM; in assay [3], 2000 nM.

Consider `Cn1cnc(C(=O)N2CCC(N3CCN([C@H]4CCN(C(=O)c5cc(C(F)(F)F)cc(C(F)(F)F)c5)[C@H](Cc5ccccc5)C4)CC3)C2)c1` (stereo partly drawn) [Compound 282], for which the IC50 in assay [1] was 12.6 nM; in assay [2], 3980 nM; in assay [3], 3980 nM.

Consider `Cc1cc(C(=O)N2CCC(N3CCN([C@H]4CCN(C(=O)c5cc(C(F)(F)F)cc(C(F)(F)F)c5)[C@H](Cc5ccccc5)C4)CC3)C2)no1` (stereo partly drawn) [Compound 46], for which the IC50 in assay [1] is 31.6 nM; in assay [2] it was 1260 nM; in assay [3] it was 3980 nM.

With `O=C(c1cc(F)ccc1F)N1CCC(N2CCN([C@H]3CCN(C(=O)c4cc(C(F)(F)F)cc(C(F)(F)F)c4)[C@H](Cc4ccccc4)C3)CC2)C1` (stereo partly drawn) [Compound 21], the IC50 in assay [1] is 12.6 nM; in assay [2] it was 398 nM; in assay [3], 5010 nM.

For `O=C(c1cccs1)N1CC[C@H](N2CCN([C@H]3CCN(C(=O)c4cc(C(F)(F)F)cc(C(F)(F)F)c4)[C@H](Cc4ccc(Cl)c(Cl)c4)C3)CC2)C1` [Compound 318], the figures for the IC50 in assay [1], in assay [2] and in assay [3] were 15.8 nM, 398 nM and 316 nM, respectively.

Take `O=C(c1ccsc1)N1CCC(N2CCN(C3CCN(C(=O)c4cc(C(F)(F)F)cc(C(F)(F)F)c4)C(Cc4ccc(F)c(F)c4)C3)CC2)C1` (single isomer, unassigned) [Compound 238]: the IC50 in assay [1] is 6.31 nM; in assay [2], 158 nM; in assay [3], 1260 nM.

As to `O=C(c1cccs1)N1CC[C@@H](N2CCN([C@H]3CCN(C(=O)c4cc(C(F)(F)F)cc(C(F)(F)F)c4)[C@H](Cc4ccccc4)C3)CC2)C1` [Compound 321], the IC50 in assay [1] was 12.6 nM; in assay [2], 251 nM; in assay [3], 3160 nM.

In the case of `CC(C)(C)C(=O)N1CCC(N2CCN(C3CCN(C(=O)c4cc(C(F)(F)F)cc(C(F)(F)F)c4)C(Cc4ccccc4)C3)CC2)C1` (stereo not drawn) [Compound 167], the IC50 is 7.94 nM in assay [1], 631 nM in assay [2] and 2000 nM in assay [3].

For `O=C(c1ccco1)N1CC[C@H](N2CCN([C@H]3CCN(C(=O)c4cc(C(F)(F)F)cc(C(F)(F)F)c4)[C@H](Cc4ccc(Cl)c(Cl)c4)C3)CC2)C1` [Compound 317], the figures for the IC50 in assay [1], in assay [2] and in assay [3] were 10 nM, 631 nM and 398 nM, respectively.

Regarding `Cc1nc(S(=O)(=O)N2CCC(N3CCN([C@H]4CCN(C(=O)c5cc(C(F)(F)F)cc(C(F)(F)F)c5)[C@H](Cc5ccccc5)C4)CC3)C2)cn1C` (stereo partly drawn) [Compound 78], the figures for the IC50 in assay [1], in assay [2] and in assay [3] were 31.6 nM, 251 nM and 398 nM, respectively.

As to `O=C(C1CC1)N1CCC(N2CCN(C3CCN(C(=O)c4cc(C(F)(F)F)cc(C(F)(F)F)c4)C(Cc4ccccc4)C3)CC2)C1` (single isomer, unassigned) [Compound 71], the IC50 was 20 nM in assay [1], 794 nM in assay [2] and 5010 nM in assay [3].

For the molecule `O=C(c1cc(C(F)(F)F)cc(C(F)(F)F)c1)N1CCC(N2CCN(C3CCN(c4ncccn4)C3)CC2)CC1Cc1ccccc1` (stereo not drawn) [Compound 5], the IC50 in assay [1] was 31.6 nM; in assay [2] it was 631 nM; in assay [3], 6310 nM.

As for `O=C(c1ccsc1)N1CC[C@@H](N2CCN([C@H]3CCN(C(=O)c4cc(C(F)(F)F)cc(C(F)(F)F)c4)[C@H](Cc4ccc(Cl)c(Cl)c4)C3)CC2)C1` [Compound 287], the figures for the IC50 in assay [1], in assay [2] and in assay [3] were 12.6 nM, 251 nM and 1260 nM, respectively.

In the case of `O=C(c1cnccn1)N1CCC(N2CCN(C3CCN(C(=O)c4cc(C(F)(F)F)cc(C(F)(F)F)c4)C(Cc4ccc(Cl)c(Cl)c4)C3)CC2)C1` (stereo not drawn) [Compound 171], the IC50 in assay [1] is 6.31 nM; in assay [2], 251 nM; in assay [3], 794 nM.

Take `CC(C)(C)OC(=O)N1CCC[C@H]1C(=O)N1CCC(N2CCN([C@H]3CCN(C(=O)c4cc(C(F)(F)F)cc(C(F)(F)F)c4)[C@H](Cc4ccccc4)C3)CC2)C1` (stereo partly drawn) [Compound 115]: the results for the IC50 in assay [1], in assay [2] and in assay [3] were 20 nM, 316 nM and 7940 nM, respectively.

As to `Cc1cc(C(=O)N2CCC(N3CCN([C@H]4CCN(C(=O)c5cc(C(F)(F)F)cc(C(F)(F)F)c5)[C@H](Cc5ccccc5)C4)CC3)C2)n(C)n1` (stereo partly drawn) [Compound 26], the values for the IC50 in assay [1], in assay [2] and in assay [3] were 10 nM, 158 nM and 1580 nM, respectively.

As for `O=C(C1CCCCC1)N1CCC(N2CCN(C3CCN(C(=O)c4cc(C(F)(F)F)cc(C(F)(F)F)c4)C(Cc4ccc(F)c(F)c4)C3)CC2)C1` (stereo not drawn) [Compound 358], the IC50 in assay [1] was 12.6 nM; in assay [2], 1580 nM; in assay [3], 3160 nM.

`Cc1nnsc1C(=O)N1CCC(N2CCN(C3CCN(C(=O)c4cc(C(F)(F)F)cc(C(F)(F)F)c4)C(Cc4ccccc4)C3)CC2)C1` (single isomer, unassigned) [Compound 380]: the figures for the IC50 in assay [1], in assay [2] and in assay [3] were 6.31 nM, 1580 nM and 7940 nM, respectively.

On to `COc1ccccc1S(=O)(=O)N1CCC(N2CCN([C@H]3CCN(C(=O)c4cc(C(F)(F)F)cc(C(F)(F)F)c4)[C@H](Cc4ccccc4)C3)CC2)C1` (stereo partly drawn) [Compound 300], for which the IC50 in assay [1] is 10 nM; in assay [2], 2000 nM; in assay [3], 794 nM.

On to `CN(C(=O)C1CC1)C(C)(C)C(=O)N1CCC(N2CCN(C3CCN(C(=O)c4cc(C(F)(F)F)cc(C(F)(F)F)c4)C(Cc4ccccc4)C3)CC2)C1` (stereo not drawn) [Compound 310], for which the IC50 is 7.94 nM in assay [1], 3980 nM in assay [2] and 2000 nM in assay [3].
